What was measured:
Type in all cases: cell-based
[1] = system: Staphylococcus aureus, ATCC 29213; test: MIC, NCCLS/CLSI guidelines (Example 5), strain A; conditions: relative to wildtype Plectasin; average of two independent experiments
Method: (§1) Plectasin wild-type (SEQ ID NO: 1) and several variants of Plectasin were expressed and purified. The Minimal Inhibitory Concentration (MIC) was determined to test for their antimicrobial activity following the NCCLS guidelines from CLSI (Clinical and Laboratory Standards Institute; formerly known as National Committee for Clinical and Laboratory Standards).
(§2) The peptides were tested against the following strains: • A: Staphylococcus aureus, ATCC 29213; • B: Staphylococcus aureus, ATCC 25923; • C: Staphylococcus aureus, ATCC 29737; • D: Staphylococcus aureus, MRSA ST5 (2001), multi-resistant clinical human isolate from Statens Serum Institut, Denmark; • E: Staphylococcus aureus, MRSA ST80 (2003), multi-resistant clinical human isolate from Statens Serum Institut, Denmark.
(§3) All MIC values represent an average of two independent experiments; and all results in Table 5 are expressed relative to wildtype Plectasin:
(§4) 0: >100% of Plectasin wildtype MIC; 1: 80-100% of Plectasin wildtype MIC; 2: 50-80% of Plectasin wildtype MIC; 3: <50% of Plectasin wildtype MIC.

[2] = system: Staphylococcus aureus, MRSA ST5 (2001); test: MIC, NCCLS/CLSI guidelines (Example 5), strain D; conditions: relative to wildtype Plectasin; average of two independent experiments
Method: as §1, §2, §3, §4

[3] = system: Staphylococcus aureus, ATCC 29737; test: MIC, NCCLS/CLSI guidelines (Example 5), strain C; conditions: relative to wildtype Plectasin; average of two independent experiments
Method: as §1, §2, §3, §4

[4] = system: Staphylococcus aureus, ATCC 25923; test: MIC, NCCLS/CLSI guidelines (Example 5), strain B; conditions: relative to wildtype Plectasin; average of two independent experiments
Method: as §1, §2, §3, §4

[5] = system: Staphylococcus aureus, MRSA ST80 (2003); test: MIC, NCCLS/CLSI guidelines (Example 5), strain E; conditions: relative to wildtype Plectasin; average of two independent experiments
Method: as §1, §2, §3, §4

[6] = system: panel of 6 different strains of Staphylococcus aureus; test: Average MIC, NCCLS/CLSI guidelines using caMHB (Example 6); conditions: average over 6 S. aureus strains, duplicate; MIC above 32 counted as 64; read after 18-24 hours at 37° C.
Method: A large number of antimicrobial peptides of the invention were tested against a panel of 6 different strains of Staphylococcus aureus listed below:
Staphylococcus aureus, ATCC29213, MSSA, NCCLS reference strain; Staphylococcus aureus, ATCC25923, MSSA, NCCLS reference strain; Staphylococcus aureus, ATCC29737, MSSA; Staphylococcus aureus, E33235, MSSA; Staphylococcus aureus, 698-01, MRSA ST5, Str, Kan, Oxa; Staphylococcus aureus, 566-03, MRSA ST80, Oxa, Tet, Fus, Kan.
The staphylococci were exposed to the following peptide concentrations: 32; 16; 8; 4; 2; 1; 0.5; 0.25; 0.13; […]; and 0.03 microgram/mL. All peptides were purified, HPLC quantified and the concentrated peptides (>160 micrograms/mL) were diluted to 160 micrograms/mL in peptide dilution buffer (0.1% BSA, 0.01% Acetic Acid).
The MIC determination was done essentially as described by NCCLS/CLSI guidelines using caMHB. The MICs were read after 18-24 hours of 37° C. incubations and recorded along with the CFU in the table below.
A total number of 95 antimicrobial peptides of the invention were evaluated in duplicate against the 6 bacterial strains described above.
In the majority of the double determinations (93%), the MIC varied <2 fold. An average MIC is tabulated below. If the MIC was above 32 micrograms/mL, a value of 64 was used to calculate the average.

[7] = system: Staphylococcus carnosus ATCC51365; test: Yeast screening assay: radial diffusion assay of yeast supernatants; parameters: key: An activity of 3 is better than Plectasin; An activity of 2 corresponds to the activity of Plectasin; 1 is worse than Plectasin; conditions: yeast supernatant, clearing zone in radial diffusion assay
Procedure, shortened: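 Supernatants from S. cerevisiae expressing plectasin variants, grown 3 days at 30 °C in galactose medium, were applied to agarose containing 5×10^5 cfu/mL S. carnosus. Plates were incubated 3 h at 37 °C, overlaid, left overnight and MTT-stained. Clearing zones were scored as 2 = plectasin-like, 3 = better, 1 = worse.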

Substance	Relative MIC, strain A [1]	Relative MIC, strain D [2]	Relative MIC, strain C [3]	Relative MIC, strain B [4]	Relative MIC, strain E [5]	Average MIC [6] [micrograms/mL]	Activity (antimicrobial activity relative to the activity of plectasin) [7]
D9A + K38R: variant of Plectasin (SEQ ID NO: 1) (GFGCNGPWAEDDMQCHNHCKSIKGYKGGYCAKGGFVCRCY)	3 (<50% of Plectasin wildtype MIC)	3 (<50% of Plectasin wildtype MIC)	3 (<50% of Plectasin wildtype MIC)	3 (<50% of Plectasin wildtype MIC)	3 (<50% of Plectasin wildtype MIC)	4	
D9A + Q14H + K26R + V36L: variant of Plectasin (SEQ ID NO: 1) (GFGCNGPWAEDDMHCHNHCKSIKGYRGGYCAKGGFLCKCY)	3 (<50% of Plectasin wildtype MIC)	3 (<50% of Plectasin wildtype MIC)	3 (<50% of Plectasin wildtype MIC)	3 (<50% of Plectasin wildtype MIC)	3 (<50% of Plectasin wildtype MIC)	1	
D9N + M13L + Q14R: variant of Plectasin (SEQ ID NO: 1) (GFGCNGPWNEDDLRCHNHCKSIKGYKGGYCAKGGFVCKCY)	3 (<50% of Plectasin wildtype MIC)	3 (<50% of Plectasin wildtype MIC)	3 (<50% of Plectasin wildtype MIC)	3 (<50% of Plectasin wildtype MIC)	3 (<50% of Plectasin wildtype MIC)	1	
D9N + Q14H + K38R: variant of Plectasin (SEQ ID NO: 1) (GFGCNGPWNEDDMHCHNHCKSIKGYKGGYCAKGGFVCRCY)	3 (<50% of Plectasin wildtype MIC)	3 (<50% of Plectasin wildtype MIC)	3 (<50% of Plectasin wildtype MIC)	3 (<50% of Plectasin wildtype MIC)	2 (50-80% of Plectasin wildtype MIC)	4	
D9S + M13L + Q14H: variant of Plectasin (SEQ ID NO: 1) (GFGCNGPWSEDDLHCHNHCKSIKGYKGGYCAKGGFVCKCY)	3 (<50% of Plectasin wildtype MIC)	3 (<50% of Plectasin wildtype MIC)	3 (<50% of Plectasin wildtype MIC)	3 (<50% of Plectasin wildtype MIC)	3 (<50% of Plectasin wildtype MIC)	3	
D9S + Q14K + V36L: variant of Plectasin (SEQ ID NO: 1) (GFGCNGPWSEDDMKCHNHCKSIKGYKGGYCAKGGFLCKCY)	3 (<50% of Plectasin wildtype MIC)	3 (<50% of Plectasin wildtype MIC)	3 (<50% of Plectasin wildtype MIC)	3 (<50% of Plectasin wildtype MIC)	3 (<50% of Plectasin wildtype MIC)	1	
D9S + Q14L + K26R: variant of Plectasin (SEQ ID NO: 1) (GFGCNGPWSEDDMLCHNHCKSIKGYRGGYCAKGGFVCKCY)	3 (<50% of Plectasin wildtype MIC)	3 (<50% of Plectasin wildtype MIC)	3 (<50% of Plectasin wildtype MIC)	3 (<50% of Plectasin wildtype MIC)	3 (<50% of Plectasin wildtype MIC)	3	
GFGCNGPWDEDDMQCHNHCKSIKRYKGGYCAKGGFVCKCY [Mutation G24R]	1 (80-100% of Plectasin wildtype MIC)	2 (50-80% of Plectasin wildtype MIC)		2 (50-80% of Plectasin wildtype MIC)	2 (50-80% of Plectasin wildtype MIC)	8	2
GFGCSGPWDEDDMRCHSHCKSIRGYKGGYCAKGGFVCKCY [N5S + Q14R + N17S + K23R]	1 (80-100% of Plectasin wildtype MIC)	3 (<50% of Plectasin wildtype MIC)	3 (<50% of Plectasin wildtype MIC)	3 (<50% of Plectasin wildtype MIC)		8	3
M13G + N17R + G33A: variant of Plectasin (SEQ ID NO: 1) (GFGCNGPWDEDDGQCHRHCKSIKGYKGGYCAKAGFVCKCY)	3 (<50% of Plectasin wildtype MIC)	3 (<50% of Plectasin wildtype MIC)	3 (<50% of Plectasin wildtype MIC)	3 (<50% of Plectasin wildtype MIC)	3 (<50% of Plectasin wildtype MIC)	2	
M13T + Q14K + K26R: variant of Plectasin (SEQ ID NO: 1) (GFGCNGPWDEDDTKCHNHCKSIKGYRGGYCAKGGFVCKCY)	1 (80-100% of Plectasin wildtype MIC)	2 (50-80% of Plectasin wildtype MIC)	3 (<50% of Plectasin wildtype MIC)	3 (<50% of Plectasin wildtype MIC)	0 (>100% of Plectasin wildtype MIC)	7	
M13V + N17T: variant of Plectasin (SEQ ID NO: 1) (GFGCNGPWDEDDVQCHTHCKSIKGYKGGYCAKGGFVCKCY)		3 (<50% of Plectasin wildtype MIC)	3 (<50% of Plectasin wildtype MIC)	3 (<50% of Plectasin wildtype MIC)	3 (<50% of Plectasin wildtype MIC)	3	
M13Y + Q14K + K26R: variant of Plectasin (SEQ ID NO: 1) (GFGCNGPWDEDDYKCHNHCKSIKGYRGGYCAKGGFVCKCY)	2 (50-80% of Plectasin wildtype MIC)	3 (<50% of Plectasin wildtype MIC)	3 (<50% of Plectasin wildtype MIC)	3 (<50% of Plectasin wildtype MIC)	3 (<50% of Plectasin wildtype MIC)	5	
